Measured values published in ChEMBL document CHEMBL1139754, “Insect pest control agents: Novel chiral butanoate esters (juvenogens)” (Bioorg Med Chem, 2007).

The compounds below were run on Prorhinotermes (assay: Juvenilizing activity against termite Prorhinotermes simplex at 0.5 mg m/L).
Type: functional
Work on CCCC(=O)O[C@@H]1CCCC[C@H]1Cc1ccc(OCCNC(=O)OCC)cc1 yielded an Activity of 65%.
Compound CCCC(=O)O[C@@H]1CCCC[C@@H]1Cc1ccc(OCCNC(=O)OCC)cc1 has an Activity of 65%.
CCCC(=O)O[C@H]1CCCC[C@@H]1Cc1ccc(OCCNC(=O)OCC)cc1 gave an Activity of 65%.
Compound CCCC(=O)O[C@H]1CCCC[C@H]1Cc1ccc(OCCNC(=O)OCC)cc1 has an Activity of 65%.
